Source: EP3655424B1, “PEPTIDES MODULATING SPERM MOTILITY BY MODULATING THE PHOSPHOPROTEIN PHOSPHATASE 1 COMPLEX” (University of Wolverhampton, priority 2017, dated 2021)
Read-outs that look alike come from different tables or passages of the source.

What was measured:
bovine spermatozoa [1] = test: Motility assay (Sperm Class Analyzer CASA System), bovine sperm; assay type: cell-based; conditions: for concentration-dependent effect on motility parameters: 10 µM versus 20 µM
Method: (§1) This study was approved by the Ethics and Internal Review Board of the Hospital Infante D. Pedro E.P.E. (Aveiro, Portugal) and was conducted in accordance with the ethical standards of the Helsinki Declaration. Human semen samples were obtained from a randomized group of donors, by masturbation to a sterile container. All donors signed informed consent allowing the samples to be used for scientific purposes. Basic semen analysis was performed according to World Health Organization (WHO) guidelines. Fresh semen from Holstein Frisian bulls was obtained from LusoGenes, LDA (Aveiro, Portugal). Semen was collected by artificial vagina and assessed by a certified veterinarian. Human and bovine spermatozoa were isolated and washed from seminal plasma by centrifugation (800 g for 5 min, 3 times) using ALLGrade Wash medium (LifeGlobal, Brussels, Belgium). Spermatozoa pellets were resuspended in medium to a final concentration of 20x10^6 cells/0.5 mL and incubated at 37°C with 5 % CO2 until the appropriated treatments were added.
(§2) Peptides (PPP1CC2-CT, TAMRA-PPP1CC2-CT, AKAP4 and AKAP4 M) were added to bovine and human sperm samples in total volume of 500 µl containing approximately 2 x10^7 sperm cells per well. Control samples included sperm cells in medium alone. The influence of bioportides on sperm motility parameters was assessed using the Sperm Class Analyzer CASA System (Microptic S L, Barcelona, Spain) with SCA® v5.4 software. Samples and controls (2 µl) were loaded into individual chambers of Leja Standrat Count 8 chamber slide 20 µm depth (Leja Products B. V., The Netherlands) which were pre-heated at 37 °C. This temperature was maintained while at least 1000 sperm cells/per measurement were evaluated. Each peptide was tested on samples from 3 individual donors and all the conditions were performed in triplicate.
(§3) Bovine and human spermatozoa were exposed to different extracellular peptide concentrations (10 and 20 µM) and motility parameters were assessed at 1 and 2 h. For reference, negative controls were performed in the absence of peptides.

human spermatozoa [2] = test: Motility assay (Sperm Class Analyzer CASA System), human sperm; assay type: cell-based; conditions: for immotile spermatozoa increased (printed: mean decrease) / mean decrease in fast progressive motility / mean decrease in non-progressive motility / mean decrease in slow progressive motility / motility parameters: human spermatozoa; for immotile spermatozoa increased (printed: mean decrease) / mean decrease in fast progressive motility / mean decrease in non-progressive motility / mean decrease in slow progressive motility: 20 µM
Method: as §1, §2, §3

bovine spermatozoa [3] = assay type: cell-based
Method: Bovine spermatozoa viability was evaluated using the trypan blue viability test according to manufacturer's guidelines. Human spermatozoa viability was measured using the CellTiter 96® AQueous Non-Radioactive Cell Proliferation Assay (Promega, Madison, USA) according to manufacturer's guidelines.

bovine spermatozoa [4] = test: Intracellular accumulation / quantitative translocation of TAMRA-labelled peptides, bovine sperm; assay type: cell-based
Method: (§4) Isolated bovine and human spermatozoa (4 x10^7 cells) were suspended and incubated with 10 µM TAMRA-labeled peptides for 1 h at 37 °C in a humidified atmosphere of 95% air/5 % CO2. Cells were then washed three times (800 g for 5 min) in ALLGrade Wash medium (LigeGlobal, Brussels, Belgium). To confirm if the fluorescently labeled peptides were not merely surface associated, the sperm cell population was divided in two and a trypsin incubation was used to remove any surface associated peptides. In summary, half of the cells were set aside (2 x10^7 cells) and fixed in 4 % paraformaldehyde (PFA) for 20 min. The other half was incubated with 1 % (wt/vol) trypsin at 37 °C, collected by centrifugation at 3000 g, washed in ALLGrade Wash medium (LigeGlobal, Brussels, Belgium) and resuspended in 4 % PFA 20 min. Fixed cells from each preparation were spread into coverslips and allowed to air dry. After mounting, slides were assessed by fluorescence microscopy (Imager.Z1, Axio-Cam HRm camera and AxioVision software, Zeiss, Jena, Germany). Translocation efficacies of CPP-mediated intracellular delivery of the peptides sequences were determined by the quantitative uptake analysis of fluorescently labeled moieties^[3]. Isolated bovine and human spermatozoa were incubated with 10 µM TAMRA-labeled peptides for 1 h at 37 °C in a humidified atmosphere of 5 % CO2. Cells were then washed four times with PBS, detached with 1 % (w/v) trypsin at 37 °C, collected by centrifugation at 3000 g and lysed in 300 µl 0.1 M NaOH for 2 h on ice. 250 µl of each sample cell lysate were transferred to a black 96-well plate, and analyzed using an Infinite® 200 PRO (Tecan, Switzerland) (λAbs 544 nm/λEm 590 nm).

human spermatozoa [5] = test: Intracellular accumulation / quantitative translocation of TAMRA-labelled peptides, human sperm; assay type: cell-based
Method: as §4, with “Isolated bovine and human spermatozoa (4 x10^7 cells) were suspended and incubated with 10 µM TAMRA-labeled peptides for 1 h at 37 °C in a humidified atmosphere of 95% air/5 % CO2.” left out, “Isolated bovine and human spermatozoa were incubated with 10 µM TAMRA-labeled peptides for 1 h at 37 °C in a humidified atmosphere of 5 % CO2.” left out

PPP1CC2-AKAP4 complex = test: Disruption of PPP1CC2-AKAP4 complex purified from human sperm (Figure 6B); assay type: binding; conditions: co-incubation, AKAP4-BM at 10 µM
Method: To establish that the detected fluorescence was not attributed to surface-associated peptide, isolated sperm cells were incubated for 1h with 10µM TAMRA-labelled peptide and subsequently treated with 1% (w/v) trypsin to remove any peptide bound to the surface of spermatozoa. Negative controls without the TAMRA-labelled peptides were performed and presented no reactivity. Images are representative from three independent experiments. Lower panel (right): Quantitative analyses of peptide translocation into bovine and human spermatozoa. Bovine and human spermatozoa were incubated with TAMRA-labelled bioportides (10µM) for 1 h at 37°C. Data are expressed as fluorescence (minus negative control). Three independent experiments were performed in quadruplicate. […] Graph bars represent the mean values of three independent experiments performed in triplicate. Error bars 95% CI. […] Graph bars represent the mean values of three independent experiments performed in triplicate. Error bars 95% CI. […] Images are representative from 3 independent experiments. […] A PPP1CC2-AKAP4 complex was purified from human sperm (Lane 1, left). […] 12, a PPP1 inhibitor, was used as a positive control and, as expected, also decreases the interaction (lane 4). […]

[6] = 10 µM, 1h, compared with negative control
[7] = 10 µM, 2h, compared with AKAP4-BM M
[8] = 10 µM, 2h, compared with negative control
[9] = 20 µM, 1h, compared with AKAP4-BM M
[10] = 20 µM, 1h, compared with negative control
[11] = 20 µM, 2h, compared with AKAP4-BM M
[12] = 20 µM, 2h, compared with negative control
[13] = 1h, compared with negative control
[14] = 2h, compared with negative control

Substance: GQQDQDRKVICFVDVSTLNVRQIKIWFQNRRMKWKK [AKAP4-BM]
- concentration-dependent effect on motility parameters (bovine spermatozoa [1]): concentration-dependent effect
- mean decrease in fast progressive motility (bovine spermatozoa [1]; 10 µM, 1h, compared with AKAP4-BM M): 41.9 ± 20.0%
- mean decrease in fast progressive motility (bovine spermatozoa [1]; [6]): 49.8 ± 22.5%
- mean decrease in fast progressive motility (bovine spermatozoa [1]; [7]): 43.9 ± 15.3%
- mean decrease in slow progressive motility (bovine spermatozoa [1]; [7]): 21.6 ± 64.4%
- mean decrease in fast progressive motility (bovine spermatozoa [1]; [8]): 50.5 ± 9.7%
- mean decrease in slow progressive motility (bovine spermatozoa [1]; [8]): 42.4 ± 20.4%
- mean decrease in fast progressive motility (bovine spermatozoa [1]; [9]): 95.0 ± 6.5%
- mean decrease in non-progressive motility (bovine spermatozoa [1]; [9]): 63.1 ± 8.3%
- immotile spermatozoa, mean increase (bovine spermatozoa [1]; [10]): 91.8 ± 25.4%
- mean decrease in non-progressive motility (bovine spermatozoa [1]; [10]): 50.0 ± 10.9%
- mean decrease in slow progressive motility (bovine spermatozoa [1]; [10]): 95.3 ± 4.8%
- mean decrease in fast progressive motility (bovine spermatozoa [1]; [11]): 98,4 ± 2,6%
- mean decrease in non-progressive motility (bovine spermatozoa [1]; [11]): 63.0 ± 7.5%
- mean decrease in slow progressive motility (bovine spermatozoa [1]; [11]): 94.1 ± 4.9%
- immotile spermatozoa, mean increase (bovine spermatozoa [1]; [12]): 183.7 ± 88.4%
- mean decrease in fast progressive motility (bovine spermatozoa [1]; [12]): 98.6 ± 2.9%
- mean decrease in slow progressive motility (bovine spermatozoa [1]; [12]): 94.2 ± 4.8%
- progressive motility (human spermatozoa [2]; human sperm, Figure 6C left panel): statistically significant decrease in progressive motility
- percentage of immotile spermatozoa (human spermatozoa [2]; human sperm, Figure 6C middle panel): corresponding increase in the percentage of immotile spermatozoa
- immotile spermatozoa increased (printed: mean decrease) (human spermatozoa [2]; 1h, compared with AKAP4-BM M): 47.3 ± 19.2%
- mean decrease in fast progressive motility (human spermatozoa [2]; 1h, compared with AKAP4-BM M): 87.0 ± 4.3%
- mean decrease in non-progressive motility (human spermatozoa [2]; 1h, compared with AKAP4-BM M): 43.4 ± 24.8%
- mean decrease in slow progressive motility (human spermatozoa [2]; 1h, compared with AKAP4-BM M): 85.1 ± 5.2%
- immotile spermatozoa increased (printed: mean decrease) (human spermatozoa [2]; [13]): 63.0 ± 27.8%
- mean decrease in fast progressive motility (human spermatozoa [2]; [13]): 49.8 ± 22.5%
- mean decrease in non-progressive motility (human spermatozoa [2]; [13]): 31.0 ± 26.9%
- mean decrease in slow progressive motility (human spermatozoa [2]; [13]): 87,6 ± 5,2%
- immotile spermatozoa increased (printed: mean decrease) (human spermatozoa [2]; 2h, compared with AKAP4-BM M): 41.9 ± 14.7%
- mean decrease in fast progressive motility (human spermatozoa [2]; 2h, compared with AKAP4-BM M): 82.7 ± 20.7%
- mean decrease in non-progressive motility (human spermatozoa [2]; 2h, compared with AKAP4-BM M): 50.6 ± 21.0%
- mean decrease in slow progressive motility (human spermatozoa [2]; 2h, compared with AKAP4-BM M): 82.3 ± 11.5%
- immotile spermatozoa increased (printed: mean decrease) (human spermatozoa [2]; [14]): 74.5 ± 28.3%
- mean decrease in fast progressive motility (human spermatozoa [2]; [14]): 50.5 ± 9.7%
- mean decrease in non-progressive motility (human spermatozoa [2]; [14]): 58.6 ± 16.1%
- mean decrease in slow progressive motility (human spermatozoa [2]; [14]): 85,7 ± 8,7%
- percentage of viable spermatozoa (bovine spermatozoa [3]): slight decrease
- internalization (microscopic analyses) (bovine spermatozoa [4]): internalized very efficiently
- internalization (microscopic analyses) (human spermatozoa [5]): internalized very efficiently
- interaction between PPP1CC2 and AKAP4 (PPP1CC2-AKAP4 complex): disrupts the PPP1CC2-AKAP4 complex

Substance: AKAP4-BM M: mutated homologue (GQQDQDRAAAAAVDVSTLNV) of AKAP4-BM coupled to the Penetratin CPP, used as a control [reference compound]
- motility parameters (bovine spermatozoa [1]; compared with negative control, two exceptions: fast progressive motility at 1h with 20 µM, immotile spermatozoa with 10 µM at 1h): did not lead to significant differences
- motility parameters (human spermatozoa [2]; compared with negative control, one exception: fast progressive motility at 2h with 20 µM): did not lead to significant differences
- internalization (microscopic analyses) (bovine spermatozoa [4]; bovine spermatozoa, 10 µM TAMRA-labelled peptide, 1 h, 37 °C, trypsin treated): internalized less efficiently
- intracellular accumulation of red fluorescent (TAMRA) analogues (human spermatozoa [5]; human spermatozoa, 5 µM, Figure 6A): accumulate within normal healthy human spermatozoa
- internalization (microscopic analyses) (human spermatozoa [5]; human spermatozoa, 10 µM TAMRA-labelled peptide, 1 h, 37 °C, trypsin treated): internalized less efficiently

Substance: RQIKIWFQNRRMKWKKKPNATRPVTPPRVASGLNPSIQKASNYRNNTVLY (H-RQIKIWFQNRRMKWKKKPNATRPVTPPRVASGLNPSIQKASNYRNNTVLY-NH2) [PPP1CC2-CT]
- concentration-dependent effect on motility parameters (bovine spermatozoa [1]): no concentration-dependent effect
- immotile spermatozoa, mean increase (bovine spermatozoa [1]; [6]): 72.5 ± 33.6%
- mean decrease in fast progressive motility (bovine spermatozoa [1]; [6]): 55.9 ± 19.4%
- mean decrease in slow progressive motility (bovine spermatozoa [1]; [6]): 49.9 ± 41%
- immotile spermatozoa, mean increase (bovine spermatozoa [1]; [8]): 128.3 ± 85.3%
- mean decrease in fast progressive motility (bovine spermatozoa [1]; [8]): 53.9 ± 19.9%
- mean decrease in slow progressive motility (bovine spermatozoa [1]; [8]): 17.4 ± 57%
- immotile spermatozoa, mean increase (bovine spermatozoa [1]; [10]): 86.2 ± 72.3%
- mean decrease in fast progressive motility (bovine spermatozoa [1]; [10]): 64.2 ± 8.3%
- mean decrease in slow progressive motility (bovine spermatozoa [1]; [10]): 31.4 ± 35%
- mean decrease in fast progressive motility (bovine spermatozoa [1]; [12]): 44.6 ± 9.7%
- non-progressive motility (bovine spermatozoa [1]; 10 and 20 µM, 1 and 2 h, Figure 3): No significant alterations
- motility parameters (human spermatozoa [2]; 10 µM): did not induce any significant alterations
- mean decrease in fast progressive motility (human spermatozoa [2]; [14]): 34.5 ± 12.3%
- internalization (microscopic analyses) (bovine spermatozoa [4]): internalized very efficiently
- internalization (microscopic analyses) (human spermatozoa [5]): internalized very efficiently
